Data: publication PMC4479967 (Journal of molecular neuroscience : MN, 2015)
Entries after “also recorded” stand apart in the source; their conditions may differ.

How the values were obtained:
[1] = test system: CCK2R; conditions: ref Innes and Snyder, 1980; cited from earlier work
[2] = test system: SCLC; conditions: basal or CCK-8-stimulated growth; ref Moody and Jensen, 2001; cited from earlier work
[3] = test system: SCLC cells; conditions: ref Staley et al., 1990; cited from earlier work
[4] = test system: EGFR tyrosine phosphorylation in NCI-H727 cells; assay: EGFR tyrosine phosphorylation; format: cell-based, human; conditions: for Significance of inhibition of CCK-8-induced EGFR tyrosine phosphorylation: Fig. 2B; for Inhibition of CCK-8-induced EGFR tyrosine phosphorylation, in words: NCI-H727 cells, concentration not given at this place
[5] = test system: ERK tyrosine phosphorylation in NCI-H727 cells; assay: ERK tyrosine phosphorylation; format: cell-based, human; conditions: for Inhibition of CCK-8-induced ERK tyrosine phosphorylation: Fig. 2C; for Inhibition of CCK-8-induced ERK phosphorylation, in words / Inhibition of CCK-8-induced ERK phosphorylation (T. Moody, unpublished): NCI-H727 cells; for Inhibition of CCK-8-induced ERK phosphorylation, in words: concentration not given at this place
[6] = test system: cytosolic Ca2+ in NCI-H727 cells; assay: Cytosolic Ca2+ in Fura-2AM loaded NCI-H727 cells; format: cell-based, human; conditions: for Effect on basal cytosolic Ca2+: CI-988 1 µM (Fig. 3D), L-364,718 concentration not printed (Fig. 3C)
[7] = test system: reactive oxygen species in NCI-H727 cells; assay: Reactive oxygen species in NCI-H727 cells; format: cell-based, human; conditions: CI-988 (10 µM, Table II), Tiron unpublished (T. Moody)
[8] = test system: NCI-H727 cells; assay: MTT proliferation assay, NCI-H727 cells
[9] = test system: NCI-H727 cells; assay: Clonogenic assay, clonal growth of NCI-H727 cells; conditions: for Effect on CCK-8-stimulated increase in colony number: CI-988 3 µM or gefitinib 1 µM, CCK-8 10 nM
[10] = test system: NCI-H510 cells; conditions: 0.1 µM; ref Sethi et al., 1993; cited from earlier work
[11] = test system: GLC19 cells; conditions: literature discussion, ref Sethi et al., 1993; cited from earlier work
[12] = cited from earlier work
[13] = test system: TGF α secretion from NCI-H727 cells; assay: TGF α secretion from NCI-H727 cells; format: cell-based, human; conditions: preliminary data, T. Moody unpublished
[14] = test system: CCK1R; conditions: ref Jensen et al., 1989; cited from earlier work
[15] = test system: AR42J cells; conditions: cited from earlier work
[16] = 5 mM NAC or Tiron (Fig. 4A, B), p < 0.05 relative to CCK-8
[17] = 10 µM as printed in legend (Fig. 4C)

Compound: Cc1cccc(NC(=O)N[C@@H]2N=C(c3ccccc3)c3ccccc3N(C)C2=O)c1 [L-365,260]
- CCK2R antagonism, in words [1]: antagonized
- Effect on SCLC growth [2]: inhibit
- Antagonism of effects of CCK-8 on SCLC cells [3]: blocked

Compound: C[C@](Cc1c[nH]c2ccccc12)(NC(=O)OC1[C@H]2C[C@@H]3C[C@@H](C[C@H]1C3)C2)C(=O)NC[C@H](NC(=O)CCC(=O)O)c1ccccc1 (stereo partly drawn) [CI-988]
- Inhibition of CCK-8-induced EGFR tyrosine phosphorylation ([4]; CI-988 1 µM vs 0.1 µM CCK-8 (Fig. 2A)): weakly
- Significance of inhibition of CCK-8-induced EGFR tyrosine phosphorylation ([4]; CI-988 1 µM): not 1 µM
- Inhibition of CCK-8-induced EGFR tyrosine phosphorylation ([4]; CI-988 10 µM vs 0.1 µM CCK-8 (Fig. 2A)): strongly
- Significance of inhibition of CCK-8-induced EGFR tyrosine phosphorylation ([4]; CI-988 10 µM, p < 0.01 relative to CCK-8): significantly inhibited
- Inhibition of CCK-8-induced EGFR tyrosine phosphorylation, in words [4]: blocked; also recorded: significantly inhibited
- Effect on total EGFR ([4]; Western blot, Fig. 2A): no effect
- Antagonism of gastrin-17-induced EGFR tyrosine phosphorylation ([4]; data not shown): antagonized
- Inhibition of CCK-8-induced ERK tyrosine phosphorylation ([5]; CI-988 1 µM): not 1 µM
- Inhibition of CCK-8-induced ERK tyrosine phosphorylation ([5]; CI-988 10 µM, p < 0.05 relative to CCK-8): significantly inhibited
- Inhibition of CCK-8-induced ERK phosphorylation, in words [5]: significantly inhibited
- Inhibition of CCK-8-induced ERK phosphorylation (T. Moody, unpublished) [5]: blocked
- Effect on total ERK ([5]; Western blot, Fig. 2A): no effect
- Antagonism of gastrin-17-induced ERK tyrosine phosphorylation ([5]; data not shown): antagonized
- Effect on basal cytosolic Ca2+ [6]: no effect
- Inhibition of CCK-8-induced ROS increase, in words [7]: blocked significantly; also recorded: inhibited
- Effect on SCLC growth [2]: inhibit
- Potentiation of growth inhibitory effects of gefitinib ([8]; NCI-H727 cells): potentiated the growth inhibitory effects of gefitinib
- Colony number + 10 nM CCK-8 ([9]; CI-988 3 uM + 10 nM CCK-8 (CCK-8 alone 74 ± 9), mean ± S.D. of 3 determinations): 44 ± 5
- Effect on CCK-8-stimulated increase in colony number [9]: reversed
- Colony number ([9]; CI-988 3 uM, no CCK-8, control 42± 6, mean ± S.D. of 3 determinations, 2 weeks): 21 ± 3
- Reduction of colony number ([9]; CI-988 (3 µM), no CCK-8): 50%
- Effect on NCI-H727 proliferation, in words ([9]; NCI-H727 cells): inhibit proliferation
- Effect on basal growth or growth stimulated by CCK-8, in words ([9]; NCI-H727 cells): inhibited the basal growth of NCI-H727 cells or that stimulated by CCK-8

Compound: gastrin
- Effect on cytosolic Ca2+, in words ([6]; 10 nM, Fura-2AM, 37°C, representative of 3 others (Fig. 3A, B)): increased the cytosolic Ca^2+
- Effect on cytosolic Ca2+ in NCI-H510 cells [10]: increased cytosolic Ca^2+
- Effect on cytosolic Ca2+ in GLC19 cells [11]: no effect
- Effect on heparin binding (HB) EGF ([12]; PKC-dependent, ref Sinclair et al., 2004): increases
- Effect on COX-2 and prostaglandin E2 expression ([12]; colon cancer cells, ref Colucci et al., 2005): increases COX-2 and prostaglandin E2 expression
- Effect on MMP9 expression ([12]; gastric epithelial cells, ref Wroblewski et al., 2002): increases
- Effect on ELK-1 and COX-2 expression ([12]; intestinal epithelial cells, ref Guo et al., 2002): increased ELK-1 and COX-2 expression
- Effect on c-fos expression ([12]; ref Stepan et al., 1999): increases c-fos expression
- Effect on expression of HB-EGF and amphiregulin ([12]; ref Tsutsui et al., 1997): increases

Compound: COc1cc2ncnc(Nc3ccc(F)c(Cl)c3)c2cc1OCCCN1CCOCC1 [Gefitinib]
- Increase in cytotoxicity of gefitinib in presence of CI-988 ([8]; gefitinib with CI-988): approximately an order of magnitude
- Effect on CCK-8-stimulated increase in colony number [9]: reversed
- Effect on basal growth or growth stimulated by CCK-8, in words ([9]; NCI-H727 cells): inhibited the basal growth of NCI-H727 cells or that stimulated by CCK-8
- Reduction of colony number ([9]; gefitinib (1 µM), no CCK-8): 37%

Compound: CC(=O)N[C@@H](CS)C(=O)O [NAC, N-acetylcysteine]
- Effect on basal EGFR tyrosine phosphorylation ([4]; 5 mM (Fig. 4A)): no effect
- Inhibition of CCK-8-induced EGFR transactivation [4, 16]: inhibited significantly; also recorded: inhibited the increase in EGFR transactivation

Compound: CNC(=O)[C@H](Cc1c[nH]c2ccccc12)NC(=O)[C@@H](CC(=O)NO)CC(C)C [GM6001]
- Effect on basal EGFR tyrosine phosphorylation [4, 17]: no effect
- Inhibition of CCK-8-induced EGFR tyrosine phosphorylation ([4]; GM6001 1 µM as printed in text (Fig. 4C, D), p < 0.01 relative to CCK-8): significantly inhibited
- Inhibition of CCK-8-induced EGFR transactivation ([4]; GM6001 10 µM as printed in legend of Fig. 4C): inhibited the increase in EGFR transactivation
- Inhibition of CCK-8-induced EGFR tyrosine phosphorylation, in words [4]: blocked; also recorded: significantly inhibited
- Inhibition of CCK-8-induced ERK phosphorylation, in words [5]: significantly inhibited
- Effect on CCK-8-stimulated secretion of TGF α [13]: inhibits

Compound: CN1C(=O)[C@@H](NC(=O)c2cc3ccccc3[nH]2)N=C(c2ccccc2)c2ccccc21 [L-364,718]
- Effect on basal cytosolic Ca2+ [6]: no effect
- CCK1R antagonism, in words [14]: antagonized
- Antagonism of effects of CCK-8 on SCLC cells [3]: not L-364,718

Compound: O=S(=O)(O)c1cc(O)c(O)c(S(=O)(=O)O)c1 [Tiron]
- Effect on basal EGFR tyrosine phosphorylation ([4]; 5 mM (Fig. 4A)): no effect
- Inhibition of CCK-8-induced EGFR transactivation [4, 16]: inhibited significantly; also recorded: inhibited the increase in EGFR transactivation
- Inhibition of CCK-8-induced EGFR tyrosine phosphorylation, in words [4]: inhibited
- Inhibition of CCK-8-induced EGFR tyrosine phosphorylation, in words ([4]; listed as tiron): blocked
- Inhibition of CCK-8-induced ROS increase, in words [7]: inhibited

Compound: CC(C)(C)n1nc(-c2ccc(Cl)cc2)c2c(N)ncnc21 [PP2]
- Inhibition of CCK-8-induced EGFR tyrosine phosphorylation ([4]; 10 µM PP2 (Fig. 4C, D), p < 0.01 relative to CCK-8): significantly inhibited; also recorded: inhibited the increase in EGFR transactivation
- Effect on basal EGFR tyrosine phosphorylation [4, 17]: no effect
- Inhibition of CCK-8-induced EGFR tyrosine phosphorylation, in words [4]: blocked; also recorded: significantly inhibited
- Inhibition of CCK-8-induced ERK phosphorylation, in words [5]: significantly inhibited
- Effect on CCK-8-stimulated increase in P-Src and P-ERK in AR42J cells ([15]; ref Ferrand et al., 2006): inhibited

Compound: COc1cc2ncnc(Nc3cccc(Cl)c3)c2cc1OC [AG1478]
- Effect on CCK-8-induced EGFR and ERK tyrosine phosphorylation in AR42J cells ([15]; ref Piiper et al., 2003): inhibited

Compound: COc1cccc(-c2cc(=O)c3ccccc3o2)c1N [PD98059]
- Inhibition of CCK-8-induced ERK phosphorylation (T. Moody, unpublished) [5]: blocked

Compound: EGF: epidermal growth factor, EGFR ligand (NSDSECPLSHDGYCLHDGVCMYIEALDKYACNCVVGYIGERCQYRDLKWWELR; UniProt P01133 971-1023, looked up)
- EGFR tyrosine phosphorylation, in words ([4]; 0.1 µM (100 nM) ligand, 2 min, NCI-H727): strongly
